Experimental data: patent US20120245137A1 (Zalicus Pharmaceuticals Ltd., priority 2009, published 2012)
Where two headings read alike, the source gives them in different places.

Experiments:
[1] = biological target: human α1G T-type channels (Homo sapiens, UniProt O43497); experiment: T-type calcium channel block, whole cell patch clamp, α1G; format: cell-based; conditions: HEK cells stably expressing human α1G; mainly non-inactivated protocol; values above 10,000 nM represented as 10000
Summary of the method: (§1)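 Whole-cell voltage clamp on stably transfected HEK 293 lines carrying human α1H or α1G. Two voltage protocols used: non-inactivated pre-pulse for resting block, inactivated for voltage-dependent block; test agents perfused locally in external solution (0.1-0.01% DMSO) following ~10 min rest.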

[2] = biological target: human α1H T-type channels (Homo sapiens, UniProt O95180); experiment: T-type calcium channel block, whole cell patch clamp, α1H; format: cell-based; conditions: HEK cells stably expressing human α1H; mainly non-inactivated protocol; values above 10,000 nM represented as 10000
Summary of the method: as §1

[3] = biological target: N-type calcium channel subunits (α1B, α2δ, and β3a) (Homo sapiens, UniProt Q00975); experiment: Block of Cav2.2 channel, whole cell voltage clamp, manual and PatchXpress; format: cell-based; conditions: Table 5; table follows Assay Example 3 (whole cell voltage clamp / PatchXpress); assay not given
Summary of the method: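 Percent block taken as current amplitude ratio with versus without compound, applied in rising doses; IC50 fitted where one cell received multiple doses. Protocol: 50 ms pulses to +20 mV at 0.067 Hz from […] or −90 mV holding; P/n leak subtraction, no junction-potential correction; manual and PatchXpress recordings.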

male CF1 mice = experiment: 6 Hz psychomotor seizure model of partial epilepsy; format: in vivo; design: concentration or dose not given beside the values; conditions: 6 Hz 32 mA corneal stimulus
Excerpt: Compounds can also be evaluated for the protection against seizures induced by a 6 Hz, 0.2 ms rectangular pulse width of 3 s duration, at a stimulus intensity of 32 mA (CC97) applied to the cornea of male CF1 mice (20-30 g) according to procedures described by Barton et al, “Pharmacological Characterization of the 6 Hz Psychomotor Seizure Model of Partial Epilepsy,” Epilepsy Res. 47(3):217-27 (2001). Seizures are characterised by the expression of one or more of the following behaviours: stun, forelimb clonus, twitching of the vibrissae and Straub-tail immediately following electrical stimulation.

mice [4] = experiment: Mouse rotarod assay; conditions: rod at 6 rpm
Description: (§3) In mice, the rotarod procedure (Dunham and Miya, J. Am. Pharmacol. Assoc. 46:208-209 (1957)) is used to disclose minimal muscular or neurological impairment (MMI). When a mouse is placed on a rod that rotates at a speed of 6 rpm, the animal can maintain its equilibrium for long periods of time. The animal is considered toxic if it falls off this rotating rod three times during a 1-min period.

mice [5] = conditions: mouse, in vivo
Description: as §3

Human Cav 2.2 channels = Human Cav 2.2 channels (Homo sapiens, UniProt Q00975); experiment: Fluorescent assay for CaV2.2 channels using potassium depolarization (VIPR/FLIPR); format: cell-based; conditions: FLIPR data
Summary of the method: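 HEK293 cells stably expressing human Cav2.2 with α2δ and β subunits plus Kir2.3 were loaded with fluo-4 and incubated 30 min at 25 °C with compound in 4, 12, 25 or 30 mM potassium buffer. Channels were opened with 70 mM potassium (final) and calcium influx was read by fluorescence (Ex 480/Em 535 nm).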

T-type calcium channel [6] = biological target: T-type calcium channel (Homo sapiens, UniProt O43497); experiment: T-type channel blocking, FLIPR data (Table 6); format: cell-based; conditions: CAv3.1
Excerpt: (§2) Another method, high-throughput spectrophotometric assay, utilizes loading of the cell lines with a fluorescent dye sensitive to intracellular calcium concentration and subsequent examination of the effects of compounds on the ability of depolarization by potassium chloride or other means to alter intracellular calcium levels.

T-type calcium channel [7] = biological target: T-type calcium channel (Homo sapiens, UniProt O95180); experiment: T-type channel blocking, FLIPR data (Table 6); format: cell-based; conditions: for CAv3.2 IC50 Ratio closed/inact.: CAv3.2, ratio closed/inact.
Excerpt: as §2

CAv1.2 = CAv1.2 (Homo sapiens, UniProt Q13936); experiment: L-type (CAv1.2) channel blocking, FLIPR data (Table 6); format: cell-based
[8] = closed state, read-out: CAv2.2 IC50 Closed
[9] = inactivated state, read-out: CAv2.2 IC50 Inact.
[10] = CAv3.2, closed state, read-out: CAv3.2 IC50 Closed
[11] = CAv3.2, inactivated state, read-out: CAv3.2 IC50 Inact.
[12] = closed state, read-out: CAv1.2 IC50 Closed
[13] = inactivated state, read-out: CAv1.2 IC50 Inact.

T-type calcium channel (Homo sapiens, UniProt O95180), sequence (O95180 whole entry): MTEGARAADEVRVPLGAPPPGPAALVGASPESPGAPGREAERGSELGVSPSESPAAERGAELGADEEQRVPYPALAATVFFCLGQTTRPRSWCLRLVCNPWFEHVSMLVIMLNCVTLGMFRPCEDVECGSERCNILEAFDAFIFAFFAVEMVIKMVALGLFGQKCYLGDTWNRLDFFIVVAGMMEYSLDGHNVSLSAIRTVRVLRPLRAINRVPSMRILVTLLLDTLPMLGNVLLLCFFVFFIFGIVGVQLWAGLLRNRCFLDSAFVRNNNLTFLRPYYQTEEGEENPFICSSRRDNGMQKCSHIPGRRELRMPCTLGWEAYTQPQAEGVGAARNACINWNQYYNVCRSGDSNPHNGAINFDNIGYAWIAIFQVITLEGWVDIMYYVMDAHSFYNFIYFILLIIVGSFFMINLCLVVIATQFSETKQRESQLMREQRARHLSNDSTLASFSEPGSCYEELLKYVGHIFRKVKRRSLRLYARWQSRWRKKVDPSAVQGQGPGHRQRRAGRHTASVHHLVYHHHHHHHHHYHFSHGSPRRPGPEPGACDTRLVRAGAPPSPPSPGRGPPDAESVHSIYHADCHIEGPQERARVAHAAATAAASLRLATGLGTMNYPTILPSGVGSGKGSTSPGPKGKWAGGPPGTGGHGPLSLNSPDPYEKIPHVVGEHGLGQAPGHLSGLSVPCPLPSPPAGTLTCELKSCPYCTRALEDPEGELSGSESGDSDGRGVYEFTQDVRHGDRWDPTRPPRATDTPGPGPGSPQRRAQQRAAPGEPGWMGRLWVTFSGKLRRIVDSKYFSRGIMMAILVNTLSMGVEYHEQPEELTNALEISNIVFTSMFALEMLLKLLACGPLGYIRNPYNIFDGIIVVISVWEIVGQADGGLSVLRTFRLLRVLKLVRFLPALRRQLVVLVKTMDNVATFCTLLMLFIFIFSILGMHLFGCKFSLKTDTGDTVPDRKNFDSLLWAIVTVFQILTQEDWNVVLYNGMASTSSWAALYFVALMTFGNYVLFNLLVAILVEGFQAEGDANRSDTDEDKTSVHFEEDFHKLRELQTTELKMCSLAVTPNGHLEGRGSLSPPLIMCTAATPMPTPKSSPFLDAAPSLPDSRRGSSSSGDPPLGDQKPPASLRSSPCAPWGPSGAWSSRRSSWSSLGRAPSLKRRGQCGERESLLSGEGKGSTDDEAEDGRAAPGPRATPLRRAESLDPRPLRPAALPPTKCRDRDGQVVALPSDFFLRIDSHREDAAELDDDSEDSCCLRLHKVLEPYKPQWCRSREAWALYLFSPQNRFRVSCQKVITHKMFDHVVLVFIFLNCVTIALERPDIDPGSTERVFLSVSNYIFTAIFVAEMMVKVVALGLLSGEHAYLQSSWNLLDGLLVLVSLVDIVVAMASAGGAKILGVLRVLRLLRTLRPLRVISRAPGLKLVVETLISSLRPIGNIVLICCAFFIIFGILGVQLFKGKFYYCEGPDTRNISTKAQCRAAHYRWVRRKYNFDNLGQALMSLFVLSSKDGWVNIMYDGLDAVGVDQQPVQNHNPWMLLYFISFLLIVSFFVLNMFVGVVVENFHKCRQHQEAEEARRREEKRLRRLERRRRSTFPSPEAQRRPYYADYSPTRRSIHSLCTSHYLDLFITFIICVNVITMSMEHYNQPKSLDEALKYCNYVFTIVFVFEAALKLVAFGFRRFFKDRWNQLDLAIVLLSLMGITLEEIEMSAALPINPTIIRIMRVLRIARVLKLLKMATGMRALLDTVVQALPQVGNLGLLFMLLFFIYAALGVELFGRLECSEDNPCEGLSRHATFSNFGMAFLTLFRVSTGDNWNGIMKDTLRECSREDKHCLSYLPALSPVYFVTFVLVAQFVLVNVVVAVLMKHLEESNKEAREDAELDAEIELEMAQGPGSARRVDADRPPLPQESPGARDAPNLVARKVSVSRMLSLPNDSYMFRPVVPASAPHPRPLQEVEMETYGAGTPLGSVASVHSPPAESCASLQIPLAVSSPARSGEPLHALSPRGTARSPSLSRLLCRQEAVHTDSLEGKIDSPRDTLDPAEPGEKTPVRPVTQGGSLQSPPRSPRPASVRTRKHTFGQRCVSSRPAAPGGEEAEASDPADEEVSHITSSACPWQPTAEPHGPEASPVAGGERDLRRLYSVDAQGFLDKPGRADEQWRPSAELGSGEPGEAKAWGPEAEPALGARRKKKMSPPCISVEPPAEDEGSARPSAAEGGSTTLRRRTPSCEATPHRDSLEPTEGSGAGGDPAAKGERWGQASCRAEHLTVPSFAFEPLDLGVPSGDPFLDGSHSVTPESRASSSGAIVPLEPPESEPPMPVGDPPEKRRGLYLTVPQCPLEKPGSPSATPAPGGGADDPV
human α1H T-type channels, sequence (O95180 whole entry): as above
human α1G T-type channels, sequence (O43497 whole entry, the tested form may be a part): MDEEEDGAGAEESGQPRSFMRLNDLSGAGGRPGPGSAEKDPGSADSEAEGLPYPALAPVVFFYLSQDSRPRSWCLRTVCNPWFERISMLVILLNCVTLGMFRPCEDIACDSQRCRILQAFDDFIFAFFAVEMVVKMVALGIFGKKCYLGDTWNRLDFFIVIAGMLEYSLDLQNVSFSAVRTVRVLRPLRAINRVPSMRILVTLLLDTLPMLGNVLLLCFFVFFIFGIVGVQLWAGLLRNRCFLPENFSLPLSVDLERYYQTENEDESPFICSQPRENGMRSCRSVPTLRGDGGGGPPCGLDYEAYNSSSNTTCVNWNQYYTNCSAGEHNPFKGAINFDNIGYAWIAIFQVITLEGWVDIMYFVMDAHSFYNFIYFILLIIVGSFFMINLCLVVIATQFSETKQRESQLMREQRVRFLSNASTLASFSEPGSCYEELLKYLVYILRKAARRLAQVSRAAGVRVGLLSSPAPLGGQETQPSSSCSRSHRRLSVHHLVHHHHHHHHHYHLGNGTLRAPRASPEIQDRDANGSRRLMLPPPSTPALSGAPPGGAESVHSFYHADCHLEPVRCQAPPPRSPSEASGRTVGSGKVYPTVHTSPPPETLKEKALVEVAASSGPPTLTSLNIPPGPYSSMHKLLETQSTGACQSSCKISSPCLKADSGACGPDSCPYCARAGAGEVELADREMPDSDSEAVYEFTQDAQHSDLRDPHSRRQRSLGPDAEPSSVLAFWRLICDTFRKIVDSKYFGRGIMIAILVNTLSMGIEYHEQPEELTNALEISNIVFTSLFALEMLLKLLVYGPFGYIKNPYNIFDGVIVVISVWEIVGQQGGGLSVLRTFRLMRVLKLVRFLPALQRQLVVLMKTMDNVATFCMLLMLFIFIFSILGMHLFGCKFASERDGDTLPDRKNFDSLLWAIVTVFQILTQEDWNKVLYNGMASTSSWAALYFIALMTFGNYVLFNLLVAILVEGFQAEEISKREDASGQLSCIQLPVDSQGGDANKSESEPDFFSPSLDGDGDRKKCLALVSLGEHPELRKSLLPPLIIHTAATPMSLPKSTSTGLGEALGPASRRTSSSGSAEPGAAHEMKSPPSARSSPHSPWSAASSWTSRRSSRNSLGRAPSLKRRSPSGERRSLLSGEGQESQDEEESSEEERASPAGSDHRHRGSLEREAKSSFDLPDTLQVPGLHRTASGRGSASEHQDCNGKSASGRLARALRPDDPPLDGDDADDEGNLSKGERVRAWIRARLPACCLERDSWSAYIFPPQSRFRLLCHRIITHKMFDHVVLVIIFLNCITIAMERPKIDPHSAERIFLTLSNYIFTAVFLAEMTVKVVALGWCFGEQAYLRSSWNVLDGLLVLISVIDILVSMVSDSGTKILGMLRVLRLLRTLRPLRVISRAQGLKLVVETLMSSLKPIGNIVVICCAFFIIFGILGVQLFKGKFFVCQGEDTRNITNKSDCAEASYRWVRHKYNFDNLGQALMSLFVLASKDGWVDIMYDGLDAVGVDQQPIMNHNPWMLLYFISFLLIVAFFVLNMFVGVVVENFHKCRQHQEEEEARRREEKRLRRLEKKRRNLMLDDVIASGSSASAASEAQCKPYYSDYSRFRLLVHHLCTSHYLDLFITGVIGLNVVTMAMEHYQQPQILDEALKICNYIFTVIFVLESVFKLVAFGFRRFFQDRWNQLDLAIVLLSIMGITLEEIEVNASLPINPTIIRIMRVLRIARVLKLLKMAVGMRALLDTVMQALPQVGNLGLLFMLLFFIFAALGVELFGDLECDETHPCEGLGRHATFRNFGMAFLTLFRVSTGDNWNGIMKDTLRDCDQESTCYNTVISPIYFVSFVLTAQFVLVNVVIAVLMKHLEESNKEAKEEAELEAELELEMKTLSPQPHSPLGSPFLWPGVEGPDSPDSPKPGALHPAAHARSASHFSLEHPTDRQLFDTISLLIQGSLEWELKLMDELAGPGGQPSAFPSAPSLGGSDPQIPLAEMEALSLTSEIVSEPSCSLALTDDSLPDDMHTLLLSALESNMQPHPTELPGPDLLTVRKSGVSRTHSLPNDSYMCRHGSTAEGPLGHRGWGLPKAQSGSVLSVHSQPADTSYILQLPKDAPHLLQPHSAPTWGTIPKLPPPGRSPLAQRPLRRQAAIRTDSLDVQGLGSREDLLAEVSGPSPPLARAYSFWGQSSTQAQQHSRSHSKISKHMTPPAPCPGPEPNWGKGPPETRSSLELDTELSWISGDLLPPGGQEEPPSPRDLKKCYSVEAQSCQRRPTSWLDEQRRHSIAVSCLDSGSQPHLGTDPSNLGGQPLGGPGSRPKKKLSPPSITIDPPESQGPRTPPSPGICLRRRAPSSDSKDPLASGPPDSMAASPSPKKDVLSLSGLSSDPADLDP
T-type calcium channel (Homo sapiens, UniProt O43497), sequence (O43497 whole entry): as the sequence (O43497 whole entry, the tested form may be a part) above

SMILES	IC50 [3]	Epilepsy 6 Hz (% protected) 0.25 hr (male CF1 mice)	Epilepsy 6 Hz (% protected) 0.5 hr (male CF1 mice)	Epilepsy 6 Hz (% protected) 1 hr (male CF1 mice)	Epilepsy 6 Hz (% protected) 2 hr (male CF1 mice)	Epilepsy 6 Hz (% protected) 4 hr (male CF1 mice)	EPILEPSY ROTAROD (% IMPAIRED) 0.25 hr (mice [4])	EPILEPSY ROTAROD (% IMPAIRED) 0.5 hr (mice [4])	EPILEPSY ROTAROD (% IMPAIRED) 1 hr (mice [4])	EPILEPSY ROTAROD (% IMPAIRED) 2 hr (mice [4])	EPILEPSY ROTAROD (% IMPAIRED) 4 hr (mice [4])	further results
CC(C)S(=O)(=O)c1cc(C(F)(F)F)cnc1C(=O)NC[C@H]1C[C@H](S(=O)(=O)c2cccc(C(F)(F)F)c2)C1 [Compound 374, 3-(isopropylsulfonyl)-5-(trifluoromethyl)-N-(((1R,3R)-3-(3-(trifluoromethyl)phenylsulfonyl)cyclobutyl)methyl)picolinamide]	250 nM	0%	0%	0%	0%	0%	0%	0%	0%	0%	0%	IC50 [1]: 7.73 µM; IC50 [2]: 2.11 µM
O=C(NCC1CC(S(=O)(=O)c2cc(F)cc(C(F)(F)F)c2)C1)c1cc(F)cc(Cl)c1 [Compound 396, 3-chloro-5-fluoro-N-(((1R,3R)-3-(3-fluoro-5-(trifluoromethyl)phenylsulfonyl)cyclobutyl)methyl)benzamide]	940 nM	50%	0%	0%	25%	0%	–	–	–	–	–	EPILEPSY ROTAROD (% IMPAIRED) 0.25 hr (mice [5]): 0%; EPILEPSY ROTAROD (% IMPAIRED) 0.5 hr (mice [5]): 0%; EPILEPSY ROTAROD (% IMPAIRED) 1 hr (mice [5]): 0%; EPILEPSY ROTAROD (% IMPAIRED) 2 hr (mice [5]): 0%; EPILEPSY ROTAROD (% IMPAIRED) 4 hr (mice [5]): 0%
CS(=O)(=O)c1nc(C(F)(F)F)ccc1C(=O)NCC1CC(S(=O)(=O)c2cccc(C(F)(F)F)c2)C1 [Compound 365, 2-(methylsulfonyl)-6-(trifluoromethyl)-N-(((1R,3R)-3-(3-(trifluoromethyl)phenylsulfonyl)cyclobutyl)methyl)nicotinamide]	1610 nM	25%	50%	50%	25%	25%	0%	0%	0%	0%	0%	IC50 [1]: 6.48 µM; IC50 [2]: 2.19 µM
CC(C)([C@H]1C[C@@H](NC(=O)c2cc(C(F)(F)F)n[nH]2)C1)S(=O)(=O)c1cccc(C(F)(F)F)c1 [Compound 543]	–	0%	0%	0%	0%	0%	0%	0%	0%	0%	0%	–
O=S(=O)(c1cccc(C(F)(F)F)c1)C1CC(c2c[nH]c(C(F)(F)F)n2)C1 [Compound 442, 2-(trifluoromethyl)-4-((1R,3R)-3-(3-(trifluoromethyl)phenylsulfonyl)cyclobutyl)-1H-imidazole]	2840 nM	50%	25%	75%	0%	0%	–	–	–	–	–	EPILEPSY ROTAROD (% IMPAIRED) 0.25 hr (mice [5]): 0%; EPILEPSY ROTAROD (% IMPAIRED) 0.5 hr (mice [5]): 0%; EPILEPSY ROTAROD (% IMPAIRED) 1 hr (mice [5]): 0%; EPILEPSY ROTAROD (% IMPAIRED) 2 hr (mice [5]): 0%; EPILEPSY ROTAROD (% IMPAIRED) 4 hr (mice [5]): 0%
CC(C)([C@H]1C[C@@H](NC(=O)c2ccc(C(F)(F)F)cc2S(C)(=O)=O)C1)S(=O)(=O)c1cccc(C(F)(F)F)c1 [Compound 542]	–	0%	0%	0%	0%	0%	0%	0%	0%	0%	0%	–
CC(C)([C@H]1C[C@@H](C(=O)Nc2ccc(C(F)(F)F)cc2)C1)S(=O)(=O)c1cccc(C(F)(F)F)c1 [Compound 756]	–	–	–	–	–	–	–	–	–	–	–	IC50 (Human Cav 2.2 channels; [8]): 3.9 µM; IC50 (Human Cav 2.2 channels; [9]): 0.39 µM; CAv2.2 IC50 Ratio closed/inact. (Human Cav 2.2 channels): 10; IC50 (T-type calcium channel [6]): 1.59 µM; IC50 (T-type calcium channel [7]; [10]): 3.52 µM; IC50 (T-type calcium channel [7]; [11]): 1.2 µM; CAv3.2 IC50 Ratio closed/inact. (T-type calcium channel [7]): 2.9; IC50 (CAv1.2; [12]): 4.19 µM; IC50 (CAv1.2; [13]): 1.37 µM; CAv1.2 IC50 Ratio closed/inact. (CAv1.2): 3.1
O=C(NC1CCC(F)(S(=O)(=O)c2cccc(C(F)(F)F)c2)CC1)c1nocc1C1CC1 [Compound 272, 4-cyclopropyl-N-((1S,4S)-4-fluoro-4-(3-(trifluoromethyl)phenylsulfonyl)cyclohexyl) isoxazole-3-carboxamide]	430 nM	0%	0%	0%	0%	0%	0%	0%	0%	0%	0%	IC50 [1]: > 10 µM; IC50 [2]: > 10 µM
O=C(NC1CCC(F)(S(=O)(=O)c2cccc(C(F)(F)F)c2)CC1)[C@@H]1C[C@@H](c2ccccc2)CN1 (stereo partly drawn) [Compound 285, (2S,4S)-N-((1S,4R)-4-fluoro-4-(3-(trifluoromethyl)phenylsulfonyl)cyclohexyl)-4-phenylpyrrolidine-2-carboxamide]	–	0%	100%	100%	100%	0%	100%	100%	100%	100%	0%	–
CC(C)([C@H]1C[C@@H](CNc2cc(C(F)(F)F)n[nH]2)C1)S(=O)(=O)c1cccc(C(F)(F)F)c1 [Compound 755]	–	–	–	–	–	–	–	–	–	–	–	IC50 (Human Cav 2.2 channels; [8]): 4.48 µM; IC50 (Human Cav 2.2 channels; [9]): 0.75 µM; CAv2.2 IC50 Ratio closed/inact. (Human Cav 2.2 channels): 6; IC50 (T-type calcium channel [6]): 5.25 µM; IC50 (T-type calcium channel [7]; [10]): ≥ 10 µM; IC50 (T-type calcium channel [7]; [11]): 2.49 µM; CAv3.2 IC50 Ratio closed/inact. (T-type calcium channel [7]): 4; IC50 (CAv1.2; [12]): 8.17 µM; IC50 (CAv1.2; [13]): 3.88 µM; CAv1.2 IC50 Ratio closed/inact. (CAv1.2): 2.1
CC(C)([C@H]1C[C@@H](NC(=O)c2cc(C(F)(F)F)ccn2)C1)S(=O)(=O)c1cccc(C(F)(F)F)c1 [Compound 551]	–	25%	0%	0%	0%	0%	0%	0%	0%	0%	0%	–
